# Values of other authors in patent publication US9180152B2, “Method for treating psoriasis” (NIKKEN SOHONSHA CORPORATION, priority 2009, dated 2015).
# Test system: Psoriasis
# Settings: well-tolerated oral doses
compound,measurement,value
CC1=C(/C=C/C(C)=C\C=C\C(C)=C\C(=O)O)C(C)(C)CCC1 [9-cis-retinoic acid],response of psoriasis,did not respond
